The results in this text go back to PubChem BioAssay (NCI).

Test systems include M19-MEL melanoma; MDA-MB-231 breast; T-47D breast; EKVX NSCLC; DLD-1 colon; BT-549 breast; HT29 colon; MCF7 breast; UACC-62 melanoma; UO-31 renal.
What all share (assay): NCI-60 cell line screen, 48 h

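In this assay, cells in 96-well plates receive the compound at five concentrations for 48 hours. Endpoints are linearly interpolated between the surrounding concentrations. Definition used: TGI = concentration required for complete inhibition of growth.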

Regarding `CN(C)CCN1C(=O)c2cccc3cc([N+](=O)[O-])cc(c23)C1=O`, the TGI is 1.84 µM in the assay with M19-MEL melanoma; 14.6 µM in the assay on MDA-MB-231 breast; 29.6 µM with T-47D breast; 2.68 µM in the assay on EKVX NSCLC; 28.4 µM in the assay on DLD-1 colon; 7.62 µM in the assay on BT-549 breast. The TGI in the assay on HT29 colon amounted to 2.8 µM; with MCF7 breast it was 0.743 µM; with UACC-62 melanoma it was 1.03 µM.
Turning to `COC(OC)c1cc2c(cc1C=O)OCO2`, the TGI with M19-MEL melanoma, in the assay on EKVX NSCLC, in the assay on DLD-1 colon, in the assay on UO-31 renal, with HT29 colon and in the assay on UACC-62 melanoma was above 100 µM in each case.
Regarding `Cc1c2ccn(O)cc2c(C)c2c1nc1ccccc12`, the TGI is above 100 µM in the assay with M19-MEL melanoma; above 100 µM in the assay with MDA-MB-231 breast; 8.93 µM with T-47D breast; above 71.3 µM in the assay on EKVX NSCLC; above 100 µM in the assay with DLD-1 colon; 27.5 µM in the assay with UO-31 renal. The TGI is 53.8 µM with BT-549 breast, above 100 µM in the assay on HT29 colon, above 100 µM with MCF7 breast and 41.6 µM in the assay on UACC-62 melanoma.
Regarding `COc1ccc(/C(=N\NC(=O)NN)C(c2ccc(OC)cc2)C2(O)C(=O)Nc3c(Cl)cc(Cl)cc32)cc1` (centres undefined), the TGI in the assay with M19-MEL melanoma, with EKVX NSCLC, in the assay with DLD-1 colon, in the assay on UO-31 renal, in the assay with HT29 colon and in the assay with UACC-62 melanoma was above 100 µM throughout.
For the molecule `N#CC(/C(CCC(=O)Nc1ccc(Cl)cc1)=N/NC(=O)c1cc2ccccc2cc1O)c1ccccc1` (centres undefined), the TGI with M19-MEL melanoma, in the assay on EKVX NSCLC, in the assay with DLD-1 colon, in the assay on UO-31 renal, in the assay on HT29 colon and in the assay on UACC-62 melanoma was above 100 µM each time.
Take `COC(=O)c1ccccc1N(C(=O)c1ccccc1)c1ccccc1C`: the TGI with M19-MEL melanoma, in the assay on EKVX NSCLC, in the assay on DLD-1 colon, in the assay on UO-31 renal, in the assay with HT29 colon and with UACC-62 melanoma was above 100 µM each time.
Consider `COc1cc(/C=C(\NC(=O)c2ccccc2)c2nc3ccc4c(c3[nH]2)C(=O)c2ccccc2C4=O)cc(OC)c1OC`, for which the TGI in the assay with M19-MEL melanoma is above 100 µM; in the assay with EKVX NSCLC it was above 100 µM; with DLD-1 colon it was above 100 µM; in the assay on UO-31 renal, 13.5 µM; in the assay with HT29 colon, above 100 µM; with UACC-62 melanoma, above 100 µM.
